Like-named read-outs stand apart in the source and are kept apart here. Non-standard residues stand in square brackets, D forms with d. Residues, ends and D or L forms follow the SMILES beside them. No end group written: not given here.
What was measured:
Detroit-562 = format: cell-based; details: 24 h
Experimental: (§1) To render the inhibitors cell permeable, the peptides are fused to either a nine-residue poly L-Arg tag or a nine-residue poly D-Arg tag, through one of several three-residue linkers, either L-RPI, D-RPI, or D-GGG. Cancer cell lines, e.g. OVCAR-3, and Detroit 562 are treated with the peptide conjugates for 24 hours by the following method. OVCAR3 and Detroit-562 cells are grown in ATCC recommended growth media. The peptides were made in a 4 mM stock. Cells are plated in 96-well flat bottom clear plates at 7000 cells/well. After 24 hours, compounds are serially diluted in one-third [starting at 33 μM] or one-half [starting at 30 μM] dilutions in PrEGM media (Lonza). Growth media was removed from the wells and compound in PrEGM was added to 100 ul final volume. 24 hours post-compound addition cell metabolism was measured by addition of 20 μl MTS solution (Promega, cell-titer 96 aqueous). Absorbance was read at 490 nm following a 2 hour incubation and data was processed in Prism Graphpad to generate EC50 values.

OVCAR3 = format: cell-based; details: 24 h
Experimental: as §1

[1] = Protein binding in human serum; format: in vitro ADME; details: CPP linked peptides
Stability in human serum = format: in vitro ADME; details: CPP linked peptides, read-out: Stability in Human Serum (t1/2)

## CC[C@H](C)[C@H](NC(=O)[C@@H]1CCCN1C(=O)[C@H](CCCNC(=N)N)NC(=O)[C@H](CCCNC(=N)N)NC(=O)[C@H](CCCNC(=N)N)NC(=O)[C@H](CCCNC(=N)N)NC(=O)[C@H](CCCNC(=N)N)NC(=O)[C@H](CCCNC(=N)N)NC(=O)[C@H](CCCNC(=N)N)NC(=O)[C@H](CCCNC(=N)N)NC(=O)[C@H](CCCNC(=N)N)NC(=O)[C@@H](N)CCCNC(=N)N)C(=O)N[C@H](CCCCN)C(=O)N[C@H](Cc1ccccc1)C(=O)N[C@H](CCCNC(=N)N)C(=O)N[C@H](Cc1ccccc1)C(=O)N[C@H](Cc1ccc(O)cc1)C(=O)N[C@H](Cc1c[nH]cn1)C(=O)N[C@H](CCCNC(=N)N)C(=O)O [RRRRRRRRRRPIkfrfyhr] (H-RRRRRRRRRRPI[dK][dF][dR][dF][dY][dH][dR]-OH; N-terminus and C-terminus assumed)
Detroit-562
  EC50: 15 µM
OVCAR3
  EC50: 11 µM
[1]
  fraction unbound: 0.19
Stability in human serum
  half-life: 4.42 h

## CC[C@H](C)[C@H](NC(=O)[C@@H]1CCCN1C(=O)[C@H](CCCNC(=N)N)NC(=O)[C@H](CCCNC(=N)N)NC(=O)[C@H](CCCNC(=N)N)NC(=O)[C@H](CCCNC(=N)N)NC(=O)[C@H](CCCNC(=N)N)NC(=O)[C@H](CCCNC(=N)N)NC(=O)[C@H](CCCNC(=N)N)NC(=O)[C@H](CCCNC(=N)N)NC(=O)[C@H](CCCNC(=N)N)NC(=O)[C@@H](N)CCCNC(=N)N)C(=O)N[C@H](CCC(N)=O)C(=O)N[C@H](CCC(N)=O)C(=O)N[C@H](CCCNC(=N)N)C(=O)N[C@H](Cc1ccc(O)cc1)C(=O)N[C@H](Cc1ccc(O)cc1)C(=O)N[C@H](Cc1c[nH]c2ccccc12)C(=O)N[C@H](CCCNC(=N)N)C(=O)O [RRRRRRRRRRPIqqryywr] (H-RRRRRRRRRRPI[dQ][dQ][dR][dY][dY][dW][dR]-OH; N-terminus and C-terminus assumed)
Detroit-562
  EC50: 12 µM
OVCAR3
  EC50: 22 µM
[1]
  fraction unbound: 0.18
Stability in human serum
  half-life: 10 h

## CC[C@H](C)[C@H](NC(=O)[C@@H]1CCCN1C(=O)[C@H](CCCNC(=N)N)NC(=O)[C@H](CCCNC(=N)N)NC(=O)[C@H](CCCNC(=N)N)NC(=O)[C@H](CCCNC(=N)N)NC(=O)[C@H](CCCNC(=N)N)NC(=O)[C@H](CCCNC(=N)N)NC(=O)[C@H](CCCNC(=N)N)NC(=O)[C@H](CCCNC(=N)N)NC(=O)[C@H](CCCNC(=N)N)NC(=O)[C@@H](N)CCCNC(=N)N)C(=O)N[C@H](CCCNC(=N)N)C(=O)N[C@H](Cc1ccccc1)C(=O)N[C@H](Cc1ccc(O)cc1)C(=O)N[C@H](Cc1ccc(O)cc1)C(=O)N[C@H](Cc1c[nH]cn1)C(=O)N[C@H](CCCNC(=N)N)C(=O)N[C@H](CCCNC(=N)N)C(=O)O [RRRRRRRRRRPIrfyyhrr] (H-RRRRRRRRRRPI[dR][dF][dY][dY][dH][dR][dR]-OH; N-terminus and C-terminus assumed)
Detroit-562
  EC50: 9 µM
OVCAR3
  EC50: 16 µM
[1]
  fraction unbound: 0.09
Stability in human serum
  half-life: 0.95 h

## CC[C@H](C)[C@H](NC(=O)[C@@H]1CCCN1C(=O)[C@H](CCCNC(=N)N)NC(=O)[C@H](CCCNC(=N)N)NC(=O)[C@H](CCCNC(=N)N)NC(=O)[C@H](CCCNC(=N)N)NC(=O)[C@H](CCCNC(=N)N)NC(=O)[C@H](CCCNC(=N)N)NC(=O)[C@H](CCCNC(=N)N)NC(=O)[C@H](CCCNC(=N)N)NC(=O)[C@H](CCCNC(=N)N)NC(=O)[C@@H](N)CCCNC(=N)N)C(=O)N[C@H](Cc1ccc(O)cc1)C(=O)N[C@H](CCC(N)=O)C(=O)N[C@H](Cc1c[nH]c2ccccc12)C(=O)N[C@H](Cc1ccc(O)cc1)C(=O)N[C@H](CCCNC(=N)N)C(=O)N[C@H](Cc1c[nH]c2ccccc12)C(=O)N[C@H](CCC(N)=O)C(=O)O [RRRRRRRRRRPIyqwyrwq] (H-RRRRRRRRRRPI[dY][dQ][dW][dY][dR][dW][dQ]-OH; N-terminus and C-terminus assumed)
Detroit-562
  EC50: 13 µM
OVCAR3
  EC50: 10 µM
[1]
  fraction unbound: 0.02
Stability in human serum
  half-life: 0.833 h

## N=C(N)NCCC[C@@H](N)C(=O)N[C@H](CCCNC(=N)N)C(=O)N[C@H](CCCNC(=N)N)C(=O)N[C@H](CCCNC(=N)N)C(=O)N[C@H](CCCNC(=N)N)C(=O)N[C@H](CCCNC(=N)N)C(=O)N[C@H](CCCNC(=N)N)C(=O)N[C@H](CCCNC(=N)N)C(=O)N[C@H](CCCNC(=N)N)C(=O)NCC(=O)NCC(=O)NCC(=O)N[C@H](Cc1ccc(O)cc1)C(=O)N[C@H](CCC(N)=O)C(=O)N[C@H](Cc1c[nH]c2ccccc12)C(=O)N[C@H](Cc1ccc(O)cc1)C(=O)N[C@H](CCCNC(=N)N)C(=O)N[C@H](Cc1c[nH]c2ccccc12)C(=O)N[C@H](CCC(N)=O)C(=O)O [rrrrrrrrrgggyqwyrwq] (H-[dR][dR][dR][dR][dR][dR][dR][dR][dR]GGG[dY][dQ][dW][dY][dR][dW][dQ]-OH; N-terminus and C-terminus assumed)
Detroit-562
  EC50: 8 µM
OVCAR3
  EC50: 6 µM
[1]
  fraction unbound: 0.11
Stability in human serum; cells given in hr
  half-life: > 24 h

## CC[C@@H](C)[C@@H](NC(=O)[C@H]1CCCN1C(=O)[C@@H](CCCNC(=N)N)NC(=O)[C@@H](CCCNC(=N)N)NC(=O)[C@@H](CCCNC(=N)N)NC(=O)[C@@H](CCCNC(=N)N)NC(=O)[C@@H](CCCNC(=N)N)NC(=O)[C@@H](CCCNC(=N)N)NC(=O)[C@@H](CCCNC(=N)N)NC(=O)[C@@H](CCCNC(=N)N)NC(=O)[C@@H](CCCNC(=N)N)NC(=O)[C@H](N)CCCNC(=N)N)C(=O)N[C@H](Cc1c[nH]cn1)C(=O)N[C@H](CC(C)C)C(=O)N[C@H](CCCNC(=N)N)C(=O)N[C@@H](C(=O)N[C@H](Cc1c[nH]c2ccccc12)C(=O)N[C@H](CCCNC(=N)N)C(=O)N[C@H](CC(N)=O)C(=O)O)[C@H](C)CC [rrrrrrrrrrpihlriwrn] (H-[dR][dR][dR][dR][dR][dR][dR][dR][dR][dR][dP][dI][dH][dL][dR][dI][dW][dR][dN]-OH; N-terminus and C-terminus assumed)
Detroit-562
  EC50: 4 µM
OVCAR3
  EC50: 4 µM
[1]
  fraction unbound: 0.05
Stability in human serum; cells given in hr
  half-life: > 24 h

## CC[C@@H](C)[C@@H](NC(=O)[C@H]1CCCN1C(=O)[C@@H](CCCNC(=N)N)NC(=O)[C@@H](CCCNC(=N)N)NC(=O)[C@@H](CCCNC(=N)N)NC(=O)[C@@H](CCCNC(=N)N)NC(=O)[C@@H](CCCNC(=N)N)NC(=O)[C@@H](CCCNC(=N)N)NC(=O)[C@@H](CCCNC(=N)N)NC(=O)[C@@H](CCCNC(=N)N)NC(=O)[C@@H](CCCNC(=N)N)NC(=O)[C@H](N)CCCNC(=N)N)C(=O)N[C@H](Cc1c[nH]cn1)C(=O)N[C@H](CCC(N)=O)C(=O)N[C@H](CCCNC(=N)N)C(=O)N[C@H](CCC(N)=O)C(=O)N[C@H](Cc1ccc(O)cc1)C(=O)N[C@H](CCC(N)=O)C(=O)N[C@H](CCCNC(=N)N)C(=O)O [rrrrrrrrrrpihqrqyqr] (H-[dR][dR][dR][dR][dR][dR][dR][dR][dR][dR][dP][dI][dH][dQ][dR][dQ][dY][dQ][dR]-OH; N-terminus and C-terminus assumed)
Detroit-562
  EC50: 35 µM
OVCAR3
  EC50: 27 µM
[1]
  fraction unbound: 0.88
Stability in human serum; cells given in hr
  half-life: > 24 h

## PRRRRRRRRRRPIWTIKLWHP
Detroit-562
  EC50: 6 µM
OVCAR3
  EC50: 4 µM

Source: patent publication US11117930B2, “Peptide inhibitors of transcription factor aggregation” (ADRX, INC., priority 2017, dated 2021)
